Measured values from PMC5889410, “Design and Biological Evaluation of Antifouling Dihydrostilbene Oxime Hybrids” (Marine Biotechnology (New York, N.y.), 2018).
Converted amounts (≈) assume the structure as drawn.

Experiments:
marine bacteria = assay: Bacterial adhesion assay, whole panel of ten strains; assay type: cell-based, 10 marine bacterial strains; conditions: tested up to 10 μg/mL, active = MIC of 10 μg/mL or below
Source text: (§1) Cyprid larvae of B. improvisus were reared in a laboratory cultivating system at Tjärnö Marine Biological Laboratory, University of Gothenburg, Sweden, as previously described by Berntsson et al. ([2000]). Four pure, but non-axenic, marine microalgae (obtained from Algobank, Caen, France) and 10 marine bacterial strains were used (Table 1) as representative microfoulers. These strains represent fouling species encountered in both estuarine and marine environments (Moodie et al. [2017b]). The bacteria were grown at 26 °C in a marine medium, composed of 0.5% peptone (neutralized bacteriological peptone, Oxoid Ltd.) in filtered (Whatman 1001–270, pore size 11 μm) natural seawater. Microalgae were grown and maintained at 22 °C in F/2 medium.
(§2) Bacterial strain adhesion and growth were determined according to the methods of Thabard et al. ([2011]). Bacterial suspensions (100-μL aliquots, 2 × 10^8 colony forming units/mL) were aseptically added to the compound containing microplate wells (10–0.01 μg/mL), and the plates were incubated for 48 h at 26 °C. Media only was used as a blank. Bacterial growth was monitored spectroscopically at 630 nm. The minimal inhibitory concentration (MIC) for bacterial growth was defined as the lowest concentration which results in a decrease in OD. After 48-h incubation time, the bacterial adhesion assay was conducted by emptying the wells and rinsing with sterile seawater (100 μL) to remove non-attached cells, and air-drying at room temperature. The residual bacterial biofilm was stained with aqueous crystal violet (100 μL, 0.3% v/v) and the OD measured at 595 nm (Sonak and Bhosle [1995]). […] If inhibition was observed, toxicity tests were conducted. The well contents were transferred into a flask of fresh media, and growth was measured after 5 days of additional incubation. The mode of action was deemed biostatic if an increase in OD was measured at 595 nm (Moodie et al. [2017a]).

[1] = system: Balanus improvisus cyprid larvae; assay: whole plant or invertebrate; assay type: in vivo; conditions: for IC50: Amphibalanus improvisus, 120 h, read-out: IC50 (cyprid settlement inhibition); for Toxicity (%) (dead cyprids): Balanus improvisus, in vivo, 5 days, 5 μg/mL
Source text: as §1
Stock solutions of compounds in DMSO were serially diluted in untreated polystyrene Petri dishes containing 10 mL of filtered (0.2 μm) seawater, affording final concentrations ranging from 0.1 to 10 μg/mL. Freshly molted balanide cyprids (18–22) were added to each Petri dish and incubated at ambient temperature (20–25 °C) for 5 days. Cyprid metamorphosis was assessed using a dissecting microscope where the numbers of juvenile settled, free-swimming, and dead cyprids were noted. Initial compound screening was conducted at 5 μg/mL, and full IC50 determination was performed only on compounds displaying > 50% inhibition at that concentration. The IC50 was defined as the concentration preventing 50% of the cyprid settlement on the Petri dish surface. Each concentration was replicated four times (n = 4), and dishes containing 0.1% of DMSO were used as negative controls. The commercial AF agent Sea-nine™ was employed as a positive control.

[2] = system: Pleurochrysis roscoffensis; assay: Microalgal adhesion assay (chlorophyll a); assay type: cell-based; conditions: Chrysotila roscoffensis, 120 h, 5 days incubation, 10–0.01 μg/mL tested, read-out: MIC against the adhesion (A) of microalgae, P. roscoffensis
Source text: as §1
(§3) Microplates containing the compounds in ranging concentrations (10–0.01 μg/mL) were prepared from MeOH stock solutions as previously described (Trepos et al. [2014]; Moodie et al. [2017a]). Microalgal stock solutions were prepared using the chlorophyll analysis methodology of Chambers et al. ([2011]). The pretreated microplate wells were treated with 100 μL of the algal stock solutions (0.1 mg chlorophyll a/mL). The plates were then incubated for 5 days at 20 °C under constant light exposure (140 μmol m^−2 s^−1). Both microalgal adhesion and growth inhibition were measured. Growth was determined by analysis of liberated chlorophyll a after centrifugation and methanol addition. Chlorophyll a was quantified fluorometrically. MIC value for algal growth was defined as the lowest concentration yielding a decrease in chlorophyll a content. Microalgal adhesion was determined in an analogous manner where the non-attached algal cells were removed prior to methanol addition (100 μL), releasing chlorophyll a from the remaining algal biofilms. The MIC for adhesion was defined as the lowest compound concentration causing a reduction in […]. Toxicity experiments were performed in an analogous manner to those described for the bacterial assays.

Halamphora coffeaeformis [3] = assay: Microalgal growth assay (chlorophyll a); assay type: cell-based; conditions: Halamphora coffeiformis, 120 h, 5 days incubation, 10–0.01 μg/mL tested, read-out: MIC against the growth (G) of microalgae, H. coffeaformis
Source text: as §1, §3

Cylindrotheca closterium = assay: Microalgal growth assay (chlorophyll a); assay type: cell-based; conditions: 120 h, 5 days incubation, 10–0.01 μg/mL tested, read-out: MIC against the growth (G) of microalgae, C. closterium
Source text: as §1, §3

Porphyridium purpureum [4] = assay: Microalgal growth assay (chlorophyll a); assay type: cell-based; conditions: 120 h, 5 days incubation, 10–0.01 μg/mL tested, read-out: MIC against the growth (G) of microalgae, P. purpureum
Source text: as §1, §3

[5] = system: Pleurochrysis roscoffensis; assay: Microalgal growth assay (chlorophyll a); assay type: cell-based; conditions: Chrysotila roscoffensis, 120 h, 5 days incubation, 10–0.01 μg/mL tested, read-out: MIC against the growth (G) of microalgae, P. roscoffensis
Source text: as §1, §3

Shewanella putrefaciens = assay: Bacterial growth assay (OD 630 nm); assay type: cell-based; conditions: 48 h incubation, 10–0.01 μg/mL tested, read-out: MIC against the growth of marine bacteria, S.p.
Source text: as §1, §2

Vibrio carchariae = assay: Bacterial growth assay (OD 630 nm); assay type: cell-based; conditions: Vibrio harveyi, 48 h incubation, 10–0.01 μg/mL tested, read-out: MIC against the growth of marine bacteria, V.c.
Source text: as §1, §2

Vibrio harveyi = assay: Bacterial growth assay (OD 630 nm); assay type: cell-based; conditions: 48 h incubation, 10–0.01 μg/mL tested, read-out: MIC against the growth of marine bacteria, V.h.
Source text: as §1, §2

Vibrio aestuarianus [6] = assay: Bacterial growth assay (OD 630 nm); assay type: cell-based; conditions: 48 h incubation, 10–0.01 μg/mL tested, read-out: MIC against the growth of marine bacteria, V.a.
Source text: as §1, §2

Vibrio natriegens = assay: Bacterial growth assay (OD 630 nm); assay type: cell-based; conditions: 48 h incubation, 10–0.01 μg/mL tested, read-out: MIC against the growth of marine bacteria, V.n.
Source text: as §1, §2

Vibrio proteolyticus = assay: Bacterial growth assay (OD 630 nm); assay type: cell-based; conditions: 48 h incubation, 10–0.01 μg/mL tested, read-out: MIC against the growth of marine bacteria, V.p.
Source text: as §1, §2

Roseobacter litoralis = assay: Bacterial growth assay (OD 630 nm); assay type: cell-based; conditions: 48 h incubation, 10–0.01 μg/mL tested, read-out: MIC against the growth of marine bacteria, R.l.
Source text: as §1, §2

[7] = system: Pseudoalteromonas elyakovii; assay: Bacterial growth assay (OD 630 nm); assay type: cell-based; conditions: 48 h incubation, 10–0.01 μg/mL tested, read-out: MIC against the growth of marine bacteria, P.e.
Source text: as §1, §2

Halomonas aquamarina = assay: Bacterial growth assay (OD 630 nm); assay type: cell-based; conditions: Vreelandella aquamarina, 48 h incubation, 10–0.01 μg/mL tested, read-out: MIC against the growth of marine bacteria, H.a.
Source text: as §1, §2

Halamphora coffeaeformis [8] = assay: Microalgal adhesion assay (chlorophyll a); assay type: cell-based; conditions: Halamphora coffeiformis, 120 h, 5 days incubation, 10–0.01 μg/mL tested, read-out: MIC against the adhesion (A) of microalgae, H. coffeaformis
Source text: as §1, §3

Porphyridium purpureum [9] = assay: Microalgal adhesion assay (chlorophyll a); assay type: cell-based; conditions: 120 h, 5 days incubation, 10–0.01 μg/mL tested, read-out: MIC against the adhesion (A) of microalgae, P. purpureum
Source text: as §1, §3

Vibrio aestuarianus [10] = assay: Bacterial adhesion assay (crystal violet, OD 595 nm); assay type: cell-based; conditions: 48 h, read-out: MIC against the adhesion of marine bacteria, V.a.
Source text: as §1, §2

microalgae = assay: Microalgal adhesion and growth, whole panel of four species; assay type: cell-based, four marine microalgae; conditions: 10–0.01 μg/mL tested
Source text: as §1, §3

[11] = system: Balanus improvisus cyprid larvae; conditions: B. improvisus; ref Moodie et al. ([2017b]); cited from earlier work

## COc1ccc(CC(=NO)c2ccc(O)c(O)c2)cc1 [Compound 10, 1-(3,4-Dihydroxyphenyl)-1-Hydroxyimino-2-(4′-Methoxyphenyl)-Ethane]
Marine bacteria
  MIC / activity against the adhesion of all bacteria tested: ^aCompounds 7, 8, 10, 11, and 12 were inactive against the adhesion of all bacteria tested up to 10 μg/mL
[1]
  IC50: 5 µg/mL (≈ 18.3 µM)
  Toxicity (%) (dead cyprids): 2.6%
[2]
  MIC: 0.1 µg/mL (≈ 0.366 µM)
Halamphora coffeaeformis [3]
  MIC: 1 µg/mL (≈ 3.66 µM)
Cylindrotheca closterium
  MIC: 10 µg/mL (≈ 36.6 µM)
Porphyridium purpureum [4]
  MIC: > 10 µg/mL
[5]
  MIC: 1 µg/mL (≈ 3.66 µM)
Shewanella putrefaciens
  MIC: > 10 µg/mL
Vibrio carchariae
  MIC: > 10 µg/mL
Vibrio harveyi
  MIC: > 10 µg/mL
Vibrio aestuarianus [6]
  MIC: > 10 µg/mL
Vibrio natriegens
  MIC: 10 µg/mL (≈ 36.6 µM)
Vibrio proteolyticus
  MIC: > 10 µg/mL
Roseobacter litoralis
  MIC: > 10 µg/mL
[7]
  MIC: 1 µg/mL (≈ 3.66 µM)
Halomonas aquamarina
  MIC: > 10 µg/mL

## COc1cc(C(Cc2cccc(O)c2)=NO)ccc1O [Compound 13, 1-(3-methoxy-4-hydroxyphenyl)-1-hydroxyimino-2-(3’-hydroxyphenyl)-ethane]
Marine bacteria
  MIC / activity against the adhesion of all bacteria tested: displayed inhibitory activities
[1]
  IC50: 5 µg/mL (≈ 18.3 µM)
  Toxicity (%) (dead cyprids): 1.6%
Halamphora coffeaeformis [8]
  MIC: 0.01 µg/mL (≈ 0.0366 µM)
Porphyridium purpureum [9]
  MIC: 10 µg/mL (≈ 36.6 µM)
[2]
  MIC: 1 µg/mL (≈ 3.66 µM)
Vibrio aestuarianus [10]
  MIC: 0.1 µg/mL (≈ 0.366 µM)
microalgae
  MIC / activity against the attachment and growth of microalgae: inhibited both the settlement and growth of all of the tested species
Halamphora coffeaeformis [3]
  MIC: 0.1 µg/mL (≈ 0.366 µM)
Cylindrotheca closterium
  MIC: 1 µg/mL (≈ 3.66 µM)
Porphyridium purpureum [4]
  MIC: 1 µg/mL (≈ 3.66 µM)
[5]
  MIC: 0.1 µg/mL (≈ 0.366 µM)
Shewanella putrefaciens
  MIC: > 10 µg/mL
Vibrio carchariae
  MIC: > 10 µg/mL
Vibrio harveyi
  MIC: > 10 µg/mL
Vibrio aestuarianus [6]
  MIC: > 10 µg/mL
Vibrio natriegens
  MIC: 1 µg/mL (≈ 3.66 µM)
Vibrio proteolyticus
  MIC: > 10 µg/mL
Roseobacter litoralis
  MIC: > 10 µg/mL
[7]
  MIC: > 10 µg/mL
Halomonas aquamarina
  MIC: > 10 µg/mL

## COc1ccc(C(Cc2ccc(O)cc2)=NO)cc1OC [Compound 8, 1-(3,4-dimethoxyphenyl)-1-hydroxyimino-2-(4’-hydroxyphenyl)-ethane]
Marine bacteria
  MIC / activity against the adhesion of all bacteria tested: ^aCompounds 7, 8, 10, 11, and 12 were inactive against the adhesion of all bacteria tested up to 10 μg/mL
[1]
  IC50: 5 µg/mL (≈ 17.4 µM)
  Toxicity (%) (dead cyprids): 0.0%
Halamphora coffeaeformis [3]
  MIC: 10 µg/mL (≈ 34.8 µM)
Cylindrotheca closterium
  MIC: 10 µg/mL (≈ 34.8 µM)
Porphyridium purpureum [4]
  MIC: > 10 µg/mL
[5]
  MIC: 10 µg/mL (≈ 34.8 µM)
Shewanella putrefaciens
  MIC: 1 µg/mL (≈ 3.48 µM)
Vibrio carchariae
  MIC: > 10 µg/mL
Vibrio harveyi
  MIC: > 10 µg/mL
Vibrio aestuarianus [6]
  MIC: > 10 µg/mL
Vibrio natriegens
  MIC: > 10 µg/mL
Vibrio proteolyticus
  MIC: > 10 µg/mL
Roseobacter litoralis
  MIC: > 10 µg/mL
[7]
  MIC: > 10 µg/mL
Halomonas aquamarina
  MIC: 10 µg/mL (≈ 34.8 µM)

## COc1cc(O)cc(CCc2cccc(O)c2)c1 [Compound 1, batatasin-III]
[11]
  IC50 (cyprid settlement inhibition): 1.0 µg/mL (≈ 4.09 µM)
